Results reported in PubChem BioAssay (NCI).
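Following 48 hours of exposure in 96-well plates, responses at five concentrations were used to interpolate endpoints linearly. Here, GI50 denotes the concentration required for 50% inhibition of growth. TGI denotes the concentration required for complete inhibition of growth.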

Columns and labels:
Assay in all cases: NCI anticancer screen, dose series, 48 h
UO-31 renal = system: UO-31 renal
KM12 colon = system: KM12 colon
SK-OV-3 ovarian = system: SK-OV-3 ovarian
OVCAR-5 ovarian = system: OVCAR-5 ovarian
CCRF-CEM leukemia = system: CCRF-CEM leukemia
HOP-92 NSCLC = system: HOP-92 NSCLC
MDA-MB-435 = system: MDA-MB-435
T-47D breast = system: T-47D breast
OVCAR-3 ovarian = system: OVCAR-3 ovarian
NCI-H522 lung = system: NCI-H522 lung
SNB-19 CNS = system: SNB-19 CNS
MCF7 breast = system: MCF7 breast
HCT-116 colon = system: HCT-116 colon
SN12C renal = system: SN12C renal
SK-MEL-5 melanoma = system: SK-MEL-5 melanoma
M14 melanoma = system: M14 melanoma
NCI-H460 lung = system: NCI-H460 lung
SK-MEL-28 melanoma = system: SK-MEL-28 melanoma
SR leukemia = system: SR leukemia
EKVX NSCLC = system: EKVX NSCLC
HT29 colon = system: HT29 colon
SK-MEL-2 melanoma = system: SK-MEL-2 melanoma
SF-539 CNS = system: SF-539 CNS
HL-60(TB) leukemia = system: HL-60(TB) leukemia
786-0 renal = system: 786-0 renal
CAKI-1 renal = system: CAKI-1 renal
RXF 393 renal = system: RXF 393 renal
NCI/ADR-RES ovarian = system: NCI/ADR-RES ovarian
TK-10 renal = system: TK-10 renal
NCI-H226 lung = system: NCI-H226 lung
HCT-15 colon = system: HCT-15 colon
PC-3 prostate = system: PC-3 prostate
DU-145 prostate = system: DU-145 prostate
NCI-H23 lung = system: NCI-H23 lung
IGROV1 ovarian = system: IGROV1 ovarian
A498 renal = system: A498 renal
UACC-257 melanoma = system: UACC-257 melanoma
RPMI-8226 leukemia = system: RPMI-8226 leukemia
SF-295 CNS = system: SF-295 CNS
U251 CNS = system: U251 CNS
OVCAR-8 ovarian = system: OVCAR-8 ovarian
UACC-62 melanoma = system: UACC-62 melanoma
MALME-3M melanoma = system: MALME-3M melanoma
MOLT-4 leukemia = system: MOLT-4 leukemia
A549 NSCLC = system: A549 NSCLC
LOX IMVI melanoma = system: LOX IMVI melanoma
BT-549 breast = system: BT-549 breast
SW-620 colon = system: SW-620 colon
HCC-2998 colon = system: HCC-2998 colon
SF-268 CNS = system: SF-268 CNS
HS 578T breast = system: HS 578T breast
OVCAR-4 ovarian = system: OVCAR-4 ovarian
ACHN renal = system: ACHN renal
K-562 leukemia = system: K-562 leukemia
HOP-62 NSCLC = system: HOP-62 NSCLC
COLO 205 colon = system: COLO 205 colon
SNB-75 CNS = system: SNB-75 CNS
MDA-MB-231 breast = system: MDA-MB-231 breast

Compound: C1CCC(C(CC2CCCCN2)C2CCCCC2)CC1 (stereo unspecified)
- GI50 (UO-31 renal): 1330 nM
- TGI (UO-31 renal): 2650 nM
- GI50 (KM12 colon): 1870 nM
- TGI (KM12 colon): 3420 nM
- GI50 (SK-OV-3 ovarian): 1540 nM
- TGI (SK-OV-3 ovarian): 2880 nM
- GI50 (OVCAR-5 ovarian): 1700 nM
- TGI (OVCAR-5 ovarian): 3220 nM
- GI50 (CCRF-CEM leukemia): 1970 nM
- TGI (CCRF-CEM leukemia): 4820 nM
- GI50 (HOP-92 NSCLC): 990 nM
- TGI (HOP-92 NSCLC): 2360 nM
- GI50 (MDA-MB-435): 1590 nM
- TGI (MDA-MB-435): 3070 nM
- GI50 (T-47D breast): 1440 nM
- TGI (T-47D breast): 2940 nM
- GI50 (OVCAR-3 ovarian): 1820 nM
- TGI (OVCAR-3 ovarian): 3260 nM
- GI50 (NCI-H522 lung): 1600 nM
- TGI (NCI-H522 lung): 3160 nM
- GI50 (SNB-19 CNS): 1780 nM
- TGI (SNB-19 CNS): 3510 nM
- GI50 (MCF7 breast): 1650 nM
- TGI (MCF7 breast): 3140 nM
- GI50 (HCT-116 colon): 1680 nM
- TGI (HCT-116 colon): 3140 nM
- GI50 (SN12C renal): 1510 nM
- TGI (SN12C renal): 2970 nM
- GI50 (SK-MEL-5 melanoma): 1550 nM
- TGI (SK-MEL-5 melanoma): 2910 nM
- GI50 (M14 melanoma): 1760 nM
- TGI (M14 melanoma): 3340 nM
- GI50 (NCI-H460 lung): 1840 nM
- TGI (NCI-H460 lung): 3620 nM
- GI50 (SK-MEL-28 melanoma): 1880 nM
- TGI (SK-MEL-28 melanoma): 3300 nM
- GI50 (SR leukemia): 2740 nM
- TGI (SR leukemia): 6670 nM
- GI50 (EKVX NSCLC): 1620 nM
- TGI (EKVX NSCLC): 3280 nM
- GI50 (HT29 colon): 1550 nM
- TGI (HT29 colon): 3060 nM
- GI50 (SK-MEL-2 melanoma): 2030 nM
- TGI (SK-MEL-2 melanoma): 3690 nM
- GI50 (SF-539 CNS): 1820 nM
- TGI (SF-539 CNS): 3390 nM
- GI50 (HL-60(TB) leukemia): 2370 nM
- TGI (HL-60(TB) leukemia): 4380 nM
- GI50 (786-0 renal): 1640 nM
- TGI (786-0 renal): 3160 nM
- GI50 (CAKI-1 renal): 1550 nM
- TGI (CAKI-1 renal): 3060 nM
- GI50 (RXF 393 renal): 1420 nM
- TGI (RXF 393 renal): 2780 nM
- GI50 (NCI/ADR-RES ovarian): 1880 nM
- TGI (NCI/ADR-RES ovarian): 3810 nM
- GI50 (TK-10 renal): 1630 nM
- TGI (TK-10 renal): 3090 nM
- GI50 (NCI-H226 lung): 1640 nM
- TGI (NCI-H226 lung): 3190 nM
- GI50 (HCT-15 colon): 1810 nM
- TGI (HCT-15 colon): 3480 nM
- GI50 (PC-3 prostate): 1500 nM
- TGI (PC-3 prostate): 2950 nM
- GI50 (DU-145 prostate): 1800 nM
- TGI (DU-145 prostate): 3210 nM
- GI50 (NCI-H23 lung): 1720 nM
- TGI (NCI-H23 lung): 3490 nM
- GI50 (IGROV1 ovarian): 1870 nM
- TGI (IGROV1 ovarian): 3450 nM
- GI50 (A498 renal): 1360 nM
- TGI (A498 renal): 2670 nM
- GI50 (UACC-257 melanoma): 1710 nM
- TGI (UACC-257 melanoma): 3530 nM
- GI50 (RPMI-8226 leukemia): 2170 nM
- TGI (RPMI-8226 leukemia): 5560 nM
- GI50 (SF-295 CNS): 1730 nM
- TGI (SF-295 CNS): 3210 nM
- GI50 (U251 CNS): 1590 nM
- TGI (U251 CNS): 3020 nM
- GI50 (OVCAR-8 ovarian): 1770 nM
- TGI (OVCAR-8 ovarian): 3530 nM
- GI50 (UACC-62 melanoma): 1530 nM
- TGI (UACC-62 melanoma): 2960 nM
- GI50 (MALME-3M melanoma): 1920 nM
- TGI (MALME-3M melanoma): 3690 nM
- GI50 (MOLT-4 leukemia): 2450 nM
- TGI (MOLT-4 leukemia): 4980 nM
- GI50 (A549 NSCLC): 1720 nM
- TGI (A549 NSCLC): 3320 nM
- GI50 (LOX IMVI melanoma): 1570 nM
- TGI (LOX IMVI melanoma): 3210 nM
- GI50 (BT-549 breast): 1930 nM
- TGI (BT-549 breast): 3510 nM
- GI50 (SW-620 colon): 1770 nM
- TGI (SW-620 colon): 3400 nM
- GI50 (HCC-2998 colon): 1410 nM
- TGI (HCC-2998 colon): 2960 nM
- GI50 (SF-268 CNS): 1770 nM
- TGI (SF-268 CNS): 3230 nM
- GI50 (HS 578T breast): 2150 nM
- TGI (HS 578T breast): 5550 nM
- GI50 (OVCAR-4 ovarian): 1650 nM
- TGI (OVCAR-4 ovarian): 3040 nM
- GI50 (ACHN renal): 1830 nM
- TGI (ACHN renal): 3320 nM
- GI50 (K-562 leukemia): 2450 nM
- TGI (K-562 leukemia): 5110 nM
- GI50 (HOP-62 NSCLC): 1350 nM
- TGI (HOP-62 NSCLC): 2640 nM
- GI50 (COLO 205 colon): 1420 nM
- TGI (COLO 205 colon): 2790 nM
- GI50 (SNB-75 CNS): 1770 nM
- TGI (SNB-75 CNS): 3430 nM
- GI50 (MDA-MB-231 breast): 1250 nM
- TGI (MDA-MB-231 breast): 2600 nM
